Article PMC5078989, “Targeted inhibition of the COP9 signalosome for treatment of cancer” (Nature Communications, 2016)

Test system: panel of cancer cell lines
Assay: Cell viability (CellTiter-Glo) dose-response across cancer cell line panel;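 on EC50: after 72 h compound incubation with CellTiter-Glo ATP readout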
Type: cell-based, human
Conditions: for EC50: Homo sapiens
Source text: Next, we explored the effect of CSN5 inhibition on the viability of cancer cells. To obtain a comprehensive picture, we generated dose–response curves with a CSN5 inhibitor across more than 500 cancer cell lines in a previously described standardized setting[47] (Supplementary Data 1).
A standardized CellTiter-Glo Assay (Promega #G7570) based on the quantification of ATP was applied according to the manufacturer's protocol to measure the amount of viable cells in culture. In brief, cells were seeded into 384-well plates at optimal density for each cell line. After 4 h, compounds were added at different concentrations in growth medium and incubated for another 72 h in a humidifying chamber at 37 °C and 5% CO2. […] EC50 values were calculated from the plot of percentage of inhibition versus inhibitor concentration using the nonlinear regression analysis software Origin 7.5SR6 (OriginLab Corp.).

NS(=O)(=O)OC[C@@H]1C[C@@H](n2ccc3c(N[C@H]4CCc5ccccc54)ncnc32)C[C@@H]1O [MLN4924] was tested, and the EC50 (SNU-685) was 720 nM, the EC50 (SNU-738) was 410 nM and the EC50 (SNU-761) was 874 nM. The EC50 (SNU-886, SNU-886) was 42.5 nM, the EC50 (SNU-1040) was 159 nM and the EC50 (SNU-1079) was 386 nM. The EC50 (SNU-C1, SNU-C1) was 1630 nM, the EC50 (SNU-C2A) was 6400 nM and the EC50 (SNU-C4, SNU-C4) was 1110 nM. It also gave an EC50 (SNU-C5) of 589 nM, an EC50 (SR-786, SR-786) of 861 nM and an EC50 (SU-DHL10, SU-DHL-10) of 204 nM. The EC50 (SU-DHL-4, SU-DHL-4) was 76.1 nM, the EC50 (SU-DHL-5, SU-DHL-5) was 101 nM and the EC50 (SU-DHL-6, SU-DHL-6) was 248 nM. For the same molecule, the EC50 (SU-DHL-8, SU-DHL-8) was 155 nM, the EC50 (SU.86.86, SU.86.86) was 777 nM and the EC50 (SUIT-2, SUIT-2) was 184 nM. The EC50 (SUM52PE) was 109 nM, the EC50 (SUM149PT) was 611 nM and the EC50 (SUM185PE) was 63.7 nM. The EC50 (SUM190PT) was 98.9 nM, the EC50 (SUM-159-PT, SUM159PT) was 6930 nM and the EC50 (SUP-T1, SUP-T1) was 154 nM. The EC50 (SW48, SW48) was 145 nM, the EC50 (SW480, SW480) was 399 nM and the EC50 (SW900, SW 900) was 1520 nM. For the same molecule, the EC50 (SW982, SW982) was 805 nM, the EC50 (SW1088, SW 1088) was > 30000 nM and the EC50 (SW1271, SW 1271) was 523 nM. The EC50 (SW1353, SW 1353) was 2900 nM, the EC50 (SW1573, SW 1573) was 224 nM and the EC50 (SW1783, SW 1783) was > 30000 nM. The EC50 (SW-403, SW403) was 803 nM, the EC50 (SW-620, SW620) was 1500 nM and the EC50 (SYO-1) was 281 nM. The EC50 (Sq-1) was 164 nM, the EC50 (T3M4, T3M-4) was 459 nM and the EC50 (T47D, T-47D) was 315 nM. For the same molecule, the EC50 (TALL-1, TALL-1) was 446 nM, the EC50 (TANOUE) was 57.9 nM and the EC50 (TC-71, TC-71) was 159 nM. It also gave an EC50 (TCC-PAN2) of 1300 nM, an EC50 (TE-1, TE-1) of 1700 nM and an EC50 (TE-6, TE-6) of 422 nM. For the same molecule, the EC50 (TE-11, TE-11) was 247 nM, the EC50 (TE-14) was 339 nM and the EC50 (TF-1, TF-1) was 1710 nM. It also gave an EC50 (THP-1, THP-1) of 175 nM, an EC50 (TT2609-C02) of 334 nM and an EC50 (TYK-nu) of 156 nM. The EC50 (U266B1) was 827 nM, the EC50 (U-87 MG) was 447 nM and the EC50 (U-118-MG, U-118 MG) was 541 nM. It also gave an EC50 (U-251, U-251 MG) of 1690 nM, an EC50 (U-937, U-937) of 103 nM and an EC50 (UACC-62, UACC-62) of 192 nM. It also gave an EC50 (UACC-257, UACC-257) of 650 nM, an EC50 (UCH1, UCH-1) of 5210 nM and an EC50 (UKE1, UKE1) of 383 nM. It also gave an EC50 (VM-CUB-1, VM-CUB1) of 829 nM, an EC50 (VMRC-LCD) of 288 nM and an EC50 (VMRC-RCW) of 1230 nM. The EC50 (WM 266-4, WM-266-4) was 465 nM, the EC50 (WM983B, WM-983B) was 201 nM and the EC50 (WM-88) was 510 nM. For the same molecule, the EC50 (WM-115, WM-115) was 1410 nM, the EC50 (WM-1799, WM1799) was 154 nM and the EC50 (WSU-WM) was 185 nM. It also gave an EC50 (YAPC) of 205 nM, an EC50 (ZR-75-1, ZR-75-1) of 353 nM and an AMAX (Hs 695T) of -54.4409. The AMAX (Hs 936.T) was -81.1628, the AMAX (HuG1-N) was -47.6265 and the AMAX (HuH-7) was -61.9045. The AMAX (IGR-37) was -85.5177, the AMAX (IGROV1) was -85.9932 and the AMAX (IPC-298) was -80.8233. It also gave an AMAX (Ishikawa) of -91.0654, an AMAX (J82) of -49.0789 and an AMAX (JHH-4) of -91.4007. It also gave an AMAX (JHOS-2) of -63.2509, an AMAX (JHUEM-2) of -75.0485 and an AMAX (JHUEM-3) of -28.2496. It also gave an AMAX (JL-1) of -61.5427, an AMAX (JVM-2) of -91.7997 and an AMAX (KARPAS-422) of -93.0088. The AMAX (KATO III) was -44.0826, the AMAX (KBM-7) was -98.5101 and the AMAX (KE-97) was -95.9856. For the same molecule, the AMAX (KMRC-1) was -84.1268, the AMAX (KP4) was -71.8264 and the AMAX (KP-1N) was -53.1172. It also gave an AMAX (KP-2) of -64.2974, an AMAX (KP-3) of -63.0208 and an AMAX (KU-19-19) of -84.2248. For the same molecule, the AMAX (KYSE-150) was -87.7498, the AMAX (KYSE-180) was -85.8737 and the AMAX (Kasumi3) was -97.5892. For the same molecule, the AMAX (L-363) was -96.7272, the AMAX (LC2/ad) was -74.576 and the AMAX (MM138) was -73.7519. The AMAX (MM415) was -81.4932, the AMAX (MM426) was -75.6165 and the AMAX (MM485) was -69.3744. The AMAX (MM537) was -69.6122, the AMAX (MOLT-16) was -97.3083 and the AMAX (MeWo) was -75.2037. It also gave an AMAX (NB-1) of -99.4488, an AMAX (NCI-H82) of -97.4475 and an AMAX (NCI-H146) of -90.9498. It also gave an AMAX (NCI-H322) of -80.9979, an AMAX (NCI-H441) of -47.4873 and an AMAX (NCI-H647) of -73.4893. It also gave an AMAX (NCI-H841) of -87.0207, an AMAX (NCI-H1373) of -83.9593 and an AMAX (NCI-H1568) of -95.718. For the same molecule, the AMAX (NCI-H1755) was -73.6315, the AMAX (NCI-H2023) was -96.0734 and the AMAX (NCI-H2087) was -83.0999. The AMAX (NCI-H2110) was -89.6657, the AMAX (NCI-H2452) was -41.6484 and the AMAX (NCI-N87) was -74.5636. It also gave an AMAX (NO36) of -67.5733, an AMAX (OUMS-23) of -78.9353 and an AMAX (OV56) of -95.0768. For the same molecule, the AMAX (P3HR-1) was -93.355, the AMAX (P12-ICHIKAWA) was -96.3019 and the AMAX (PA-TU-8988T) was -81.7224. The AMAX (PANC-1) was -64.2148, the AMAX (PC-3) was -79.4027 and the AMAX (PE/CA-PJ34 (clone C12)) was -79.361. The AMAX (PE/CA-PJ49) was -67.4836, the AMAX (PF-382) was -98.4673 and the AMAX (PL-21) was -95.522. It also gave an AMAX (Panc 03.27) of -88.9221, an AMAX (Panc 04.03) of -72.0017 and an AMAX (Panc 10.05) of -85.7173. For the same molecule, the AMAX (RD-ES) was -97.5942, the AMAX (RT-112) was -90.3953 and the AMAX (SEM) was -97.7133. The AMAX (SK-ES-1) was -95.0336, the AMAX (SK-MEL-3) was -81.0459 and the AMAX (SW480) was -74.5488. It also gave an AMAX (VMRC-RCW) of -71.6057.
